Results taken from patent US20240050564A1, “COMBINATION THERAPY USING AN ANTI-FUCOSYL-GM1 ANTIBODY” (BRISTOL-MYERS SQUIBB COMPANY, priority 2021, published 2024).
One block for each molecule: values may come before it.

What was measured:
[1] = tested on: small cell lung cancer (SCLC); settings: nivolumab monotherapy, 147 patients; cited from earlier work
[2] = tested on: DMS79 cells; assay: DMS-79 SCLC tumor model in mice, anti-fucosyl-GM1 and cisplatin (Example 1); type: in vivo, male C.B17 SCID mice; settings: BMS-986012 0.3 mg/kg i.p. days 7, 10, 13, 17, 21; cisplatin 3 mg/kg days 7, 14, 21, 28 (alone with isotype control antibody)
Method: Median tumor volumes are presented for groups of 8 mice at each data point. See Example 1.
(§1) A combination therapy method of the present invention involving antibody to fucosyl-GM1 and cisplatin was tested in the DMS-79 SCLC tumor model in mice ([…] mice per group). Bepler et al. (1989) Oncogene 4:45; Pettengill (1980) Cancer 45: 906; Pettengill et al. (1980) Exp. Cell Biol. 48:279. Briefly, DMS79 cells were cultured in RPMI with 10% fetal bovine serum (FBS), 2 mM L-glutamine, […] sodium bicarbonate, 4.5 g/L glucose, 10 mM HEPES, and 10 μM NaPyr prior to subcutaneous implantation in the right flanks of male C.B17 SCID mice (5 million cells in 0.1 mL phosphate-buffered saline (PBS) and 0.1 mL […]® gelatinous protein mixture per flank). When tumors reached a mean or median size of 80-155 mm^3 estimated by L×W×H/2 using a digital calipers, mice were randomized into treatment groups (N=8 mice per group).
Anti-fucosyl-GM1 antibody BMS-986012 was administered at 0.3 mg/kg i.p. to mice on days 7, 10, 13, 17 and 21 post implantation, and cisplatin was administered at 3 mg/kg on days 7, 14, 21 and 28. Because fucosyl-GM1 is a ganglioside rather than a protein, and is the same in mice as in humans, there was no need to use a “mouse surrogate” for mouse studies. Cisplatin was administered in combination with BMS-986012 and with an isotype control antibody at 3 mg/kg as a control. […]

[3] = tested on: DMS79 cells; assay: DMS-79 SCLC tumor model in mice, anti-fucosyl-GM1 and etoposide (Example 2); type: in vivo; settings: BMS-986012 3 mg/kg i.p. days 7, 11, 15, 18, 21; etoposide 15 mg/kg i.p. days 7, 9, 11 (alone with isotype control antibody)
Method: Median tumor volumes are presented for groups of 8 mice at each data point. See Example 2.
as §1
A combination therapy method of the present invention involving antibody to fucosyl-GM1 and etoposide was tested in the DMS-79 SCLC tumor model in mice (N=9 mice per group), essentially as described in Example 1. Anti-fucosyl-GM1 antibody BMS-986012 was administered at 3 mg/kg i.p. to mice on days 7, 11, 15, 18 and 21 post-implantation, and etoposide was administered at 15 mg/kg i.p. on days 7, 9 and 11. […]

[4] = Binding of BMS-986012 to fucosyl-GM1
Excerpt: (§2) BMS-986012 is a first-in-class fully human monoclonal antibody (mAb) that specifically binds to the fucosyl-GM1 ganglioside. […] Because fucosyl-GM1 is preferentially found on the surface of lung cancer cells, BMS-986012 is particularly well suited to treating lung cancer, such as small cell lung cancer (SCLC).

[5] = Binding to closely related molecule GM1
Excerpt: as §2

[6] = tested on: Fc receptors; settings: non-fucosylated Fc domain; cited from earlier work
[7] = non-fucosylated, compared to an antibody with typical mammalian glycosylation; cited from earlier work

Molecule: nivolumab: anti-PD-1 mAb comprising heavy chains of SEQ ID NO: 13 and light chains of SEQ ID NO: 14
published ORR [1]: 12% | published disease control rate [1]: 29%

Molecule: N.N.[Cl][Pt][Cl] [cisplatin, reference compound]
tumor growth (median tumor volume, FIG. 1) [2]: effective as monotherapy to reduce tumor growth

Molecule: COc1cc([C@@H]2c3cc4c(cc3[C@@H](O[C@@H]3O[C@@H]5CO[C@@H](C)O[C@H]5[C@H](O)[C@H]3O)[C@H]3COC(=O)[C@H]23)OCO4)cc(OC)c1O [etoposide, reference compound]
tumor growth (median tumor volume, FIG. 2) [3]: somewhat effective as monotherapy to reduce tumor growth

antigen-specific binding to GM1 [5]: no detectable antigen-specific binding
Molecule: BMS-986012: anti-fucosyl-GM1 mAb comprising heavy chains of SEQ ID NO: 3 and light chains of SEQ ID NO: 4
binding to fucosyl-GM1 [4]: high-affinity and dose-dependent saturable binding | tumor growth (median tumor volume, FIG. 1) [2]: effective as monotherapy to reduce tumor growth | tumor growth (median tumor volume, FIG. 2) [3]: somewhat effective as monotherapy to reduce tumor growth | affinity for Fc receptors [6]: higher affinity | antibody-dependent cellular cytotoxicity (ADCC) [7]: enhanced
